Data from PubChem BioAssay (NCI).
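Results reflect a 48-hour exposure of cells in 96-well plates to compound at five concentrations. Abbreviation: GI50, concentration required for 50% inhibition of growth. TGI marks complete inhibition of growth.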

Tests used:
Assay in all cases: NCI-60 cell line screen, 48 h
NCI-H23 lung = test system: NCI-H23 lung
TK-10 renal = test system: TK-10 renal
CCRF-CEM leukemia = test system: CCRF-CEM leukemia
SK-MEL-2 melanoma = test system: SK-MEL-2 melanoma
HOP-62 NSCLC = test system: HOP-62 NSCLC
A498 renal = test system: A498 renal
UACC-62 melanoma = test system: UACC-62 melanoma
UO-31 renal = test system: UO-31 renal
HCT-15 colon = test system: HCT-15 colon
NCI-H460 lung = test system: NCI-H460 lung
786-0 renal = test system: 786-0 renal
EKVX NSCLC = test system: EKVX NSCLC
SF-268 CNS = test system: SF-268 CNS
SNB-78 CNS = test system: SNB-78 CNS
XF 498 CNS = test system: XF 498 CNS
MOLT-4 leukemia = test system: MOLT-4 leukemia
OVCAR-3 ovarian = test system: OVCAR-3 ovarian
A549 NSCLC = test system: A549 NSCLC
M14 melanoma = test system: M14 melanoma
HL-60(TB) leukemia = test system: HL-60(TB) leukemia
MALME-3M melanoma = test system: MALME-3M melanoma
SNB-75 CNS = test system: SNB-75 CNS
DMS 273 small cell lung = test system: DMS 273 small cell lung
COLO 205 colon = test system: COLO 205 colon
M19-MEL melanoma = test system: M19-MEL melanoma
RPMI-8226 leukemia = test system: RPMI-8226 leukemia
ACHN renal = test system: ACHN renal
HT29 colon = test system: HT29 colon
SK-OV-3 ovarian = test system: SK-OV-3 ovarian
LOX IMVI melanoma = test system: LOX IMVI melanoma
U251 CNS = test system: U251 CNS
KM20L2 colon = test system: KM20L2 colon
HCT-116 colon = test system: HCT-116 colon
SR leukemia = test system: SR leukemia
SN12C renal = test system: SN12C renal
NCI-H522 lung = test system: NCI-H522 lung
LXFL 529 NSCLC = test system: LXFL 529 NSCLC
CAKI-1 renal = test system: CAKI-1 renal
HCC-2998 colon = test system: HCC-2998 colon
OVCAR-4 ovarian = test system: OVCAR-4 ovarian
DLD-1 colon = test system: DLD-1 colon
RXF 393 renal = test system: RXF 393 renal
OVCAR-5 ovarian = test system: OVCAR-5 ovarian
SNB-19 CNS = test system: SNB-19 CNS
IGROV1 ovarian = test system: IGROV1 ovarian
SK-MEL-28 melanoma = test system: SK-MEL-28 melanoma
DU-145 prostate = test system: DU-145 prostate
NCI-H226 lung = test system: NCI-H226 lung
SK-MEL-5 melanoma = test system: SK-MEL-5 melanoma
SW-620 colon = test system: SW-620 colon
K-562 leukemia = test system: K-562 leukemia
HOP-18 NSCLC = test system: HOP-18 NSCLC
SF-295 CNS = test system: SF-295 CNS
UACC-257 melanoma = test system: UACC-257 melanoma
OVCAR-8 ovarian = test system: OVCAR-8 ovarian
SF-539 CNS = test system: SF-539 CNS
HOP-92 NSCLC = test system: HOP-92 NSCLC
KM12 colon = test system: KM12 colon

CC(=O)N/C=C/c1cc(O)ccc1O
TGI (NCI-H23 lung): 56100 nM | TGI (TK-10 renal): 54500 nM | TGI (CCRF-CEM leukemia): 75300 nM | TGI (SK-MEL-2 melanoma): 55100 nM | TGI (HOP-62 NSCLC): > 55200 nM | TGI (A498 renal): 98100 nM | TGI (UACC-62 melanoma): 47100 nM | TGI (UO-31 renal): 46200 nM | TGI (HCT-15 colon): > 72900 nM | TGI (NCI-H460 lung): > 74600 nM | TGI (786-0 renal): 48100 nM | TGI (EKVX NSCLC): > 73600 nM | TGI (SF-268 CNS): 49800 nM | TGI (SNB-78 CNS): > 71800 nM | TGI (XF 498 CNS): 32300 nM | TGI (MOLT-4 leukemia): 37100 nM | TGI (OVCAR-3 ovarian): 29800 nM | TGI (A549 NSCLC): > 76400 nM | TGI (M14 melanoma): 48200 nM | TGI (HL-60(TB) leukemia): 54000 nM | TGI (MALME-3M melanoma): > 60600 nM | TGI (SNB-75 CNS): > 81900 nM | TGI (DMS 273 small cell lung): > 100000 nM | TGI (COLO 205 colon): 45800 nM | TGI (M19-MEL melanoma): 46700 nM | TGI (RPMI-8226 leukemia): > 89900 nM | TGI (ACHN renal): 37400 nM | TGI (HT29 colon): 48600 nM | TGI (SK-OV-3 ovarian): > 70600 nM | TGI (LOX IMVI melanoma): 45600 nM | TGI (U251 CNS): > 68600 nM | TGI (KM20L2 colon): > 67700 nM | TGI (HCT-116 colon): 47400 nM | TGI (SR leukemia): 70500 nM | TGI (SN12C renal): 46900 nM | TGI (NCI-H522 lung): 7190 nM | TGI (LXFL 529 NSCLC): 29000 nM | TGI (CAKI-1 renal): 41700 nM | TGI (HCC-2998 colon): > 76200 nM | TGI (OVCAR-4 ovarian): 47900 nM | TGI (DLD-1 colon): 48200 nM | TGI (RXF 393 renal): 49300 nM | TGI (OVCAR-5 ovarian): 38100 nM | TGI (SNB-19 CNS): > 72400 nM | TGI (IGROV1 ovarian): > 68100 nM | TGI (SK-MEL-28 melanoma): 48600 nM | TGI (DU-145 prostate): > 100000 nM | TGI (NCI-H226 lung): > 77400 nM | TGI (SK-MEL-5 melanoma): > 67500 nM | TGI (SW-620 colon): 35400 nM | TGI (K-562 leukemia): > 91700 nM | TGI (HOP-18 NSCLC): 35200 nM | TGI (SF-295 CNS): 48100 nM | TGI (UACC-257 melanoma): 47900 nM | TGI (OVCAR-8 ovarian): > 85900 nM | TGI (SF-539 CNS): > 66500 nM | TGI (HOP-92 NSCLC): 36800 nM | TGI (KM12 colon): > 100000 nM

C=[CH][Sn]([CH]=C)([S]c1cccc2cccnc12)[S]c1cccc2cccnc12
GI50 (NCI-H23 lung): 169 nM | TGI (NCI-H23 lung): 388 nM | GI50 (TK-10 renal): 458 nM | TGI (TK-10 renal): 1460 nM | GI50 (CCRF-CEM leukemia): 76.7 nM | TGI (CCRF-CEM leukemia): 641 nM | GI50 (SK-MEL-2 melanoma): 222 nM | TGI (SK-MEL-2 melanoma): 490 nM | GI50 (HOP-62 NSCLC): 1450 nM | TGI (HOP-62 NSCLC): 3490 nM | GI50 (UACC-62 melanoma): 147 nM | TGI (UACC-62 melanoma): 287 nM | GI50 (UO-31 renal): 181 nM | TGI (UO-31 renal): 358 nM | GI50 (HCT-15 colon): 237 nM | TGI (HCT-15 colon): 648 nM | GI50 (NCI-H460 lung): 201 nM | TGI (NCI-H460 lung): 417 nM | GI50 (786-0 renal): 216 nM | TGI (786-0 renal): 452 nM | GI50 (EKVX NSCLC): 678 nM | TGI (EKVX NSCLC): 1970 nM | GI50 (SNB-78 CNS): 145 nM | TGI (SNB-78 CNS): 396 nM | GI50 (XF 498 CNS): 283 nM | TGI (XF 498 CNS): 679 nM | GI50 (MOLT-4 leukemia): 287 nM | TGI (MOLT-4 leukemia): 967 nM | GI50 (OVCAR-3 ovarian): 268 nM | TGI (OVCAR-3 ovarian): 810 nM | GI50 (A549 NSCLC): 343 nM | TGI (A549 NSCLC): 1120 nM | GI50 (M14 melanoma): 210 nM | TGI (M14 melanoma): 404 nM | GI50 (HL-60(TB) leukemia): 268 nM | TGI (HL-60(TB) leukemia): 611 nM | GI50 (SNB-75 CNS): 562 nM | TGI (SNB-75 CNS): 2370 nM | GI50 (DMS 273 small cell lung): 216 nM | TGI (DMS 273 small cell lung): 486 nM | GI50 (COLO 205 colon): 70.2 nM | TGI (COLO 205 colon): 254 nM | GI50 (M19-MEL melanoma): 194 nM | TGI (M19-MEL melanoma): 372 nM | GI50 (RPMI-8226 leukemia): 248 nM | TGI (RPMI-8226 leukemia): 692 nM | GI50 (ACHN renal): 206 nM | TGI (ACHN renal): 507 nM | GI50 (HT29 colon): 226 nM | TGI (HT29 colon): 476 nM | GI50 (SK-OV-3 ovarian): 436 nM | TGI (SK-OV-3 ovarian): 1550 nM | GI50 (LOX IMVI melanoma): 172 nM | TGI (LOX IMVI melanoma): 310 nM | GI50 (U251 CNS): 191 nM | TGI (U251 CNS): 380 nM | GI50 (KM20L2 colon): 211 nM | TGI (KM20L2 colon): 449 nM | GI50 (HCT-116 colon): 165 nM | TGI (HCT-116 colon): 318 nM | GI50 (SR leukemia): 216 nM | TGI (SR leukemia): 687 nM | GI50 (SN12C renal): 442 nM | TGI (SN12C renal): 1600 nM | GI50 (LXFL 529 NSCLC): 236 nM | TGI (LXFL 529 NSCLC): 649 nM | GI50 (CAKI-1 renal): 366 nM | TGI (CAKI-1 renal): 1580 nM | GI50 (HCC-2998 colon): 212 nM | TGI (HCC-2998 colon): 437 nM | GI50 (OVCAR-4 ovarian): 204 nM | TGI (OVCAR-4 ovarian): 553 nM | GI50 (DLD-1 colon): 244 nM | TGI (DLD-1 colon): 722 nM | GI50 (RXF 393 renal): 255 nM | TGI (RXF 393 renal): 678 nM | GI50 (OVCAR-5 ovarian): 237 nM | TGI (OVCAR-5 ovarian): 745 nM | GI50 (SNB-19 CNS): 794 nM | TGI (SNB-19 CNS): 2040 nM | GI50 (IGROV1 ovarian): 273 nM | TGI (IGROV1 ovarian): 726 nM | GI50 (SK-MEL-28 melanoma): 138 nM | TGI (SK-MEL-28 melanoma): 321 nM | GI50 (NCI-H226 lung): 280 nM | TGI (NCI-H226 lung): 1150 nM | GI50 (SK-MEL-5 melanoma): 203 nM | TGI (SK-MEL-5 melanoma): 389 nM | GI50 (SW-620 colon): 156 nM | TGI (SW-620 colon): 299 nM | GI50 (K-562 leukemia): 234 nM | TGI (K-562 leukemia): 621 nM | GI50 (HOP-18 NSCLC): 1660 nM | TGI (HOP-18 NSCLC): 3020 nM | GI50 (SF-295 CNS): 438 nM | TGI (SF-295 CNS): 1830 nM | GI50 (UACC-257 melanoma): 212 nM | TGI (UACC-257 melanoma): 494 nM | GI50 (OVCAR-8 ovarian): 313 nM | TGI (OVCAR-8 ovarian): 1000 nM | GI50 (SF-539 CNS): 321 nM | TGI (SF-539 CNS): 1010 nM | GI50 (HOP-92 NSCLC): 1590 nM | TGI (HOP-92 NSCLC): 3070 nM | GI50 (KM12 colon): 176 nM | TGI (KM12 colon): 322 nM
